How the values were obtained:
Type in all cases: in vivo
Details in all cases: beagle dogs, nasal spray, result in words
[1] = Experimental Example 2: pharmacokinetic experiment, nalmefene in plasma by LC-MS/MS
Source text: Beagle dogs (body weight of 12 kg-15 kg, supplier: Suzhou Xishan Zhongke Experimental Animal Co., Ltd., license number: SCXK(Su)2018-0001)
• EDTA-K2 anticoagulant tube: brand Kangweishi (KWS) • Liquid chromatograph (Shimadzu, LC-30AD), mass spectrometer (SCIEX Triple Quad 4500) • LC-MS/MS detection conditions: • Instrument: UPLC-MS/MS (AB API 4500) • MS conditions: Electrospray ionization (ESI) source, positive ion detection […]
(§1) Experimental method of nasal administration for Example 1: Four beagle dogs were administered with 1 dose of a nasal spray preparation of nalmefene hydrochloride by nasal spray respectively, and 2 mL of blood was collected from the forelimb vein before administration and at 2 min, 5 min, 10 min, 15 min, 30 min, 45 min, 1 h, 2 h, 4 h and 6 h after administration. […] The content of nalmefene in the plasma was detected by LC-MS/MS. […]
Experimental method of intramuscular injection for Comparative Example 2: Four beagle dogs were administered 1 dose of an injection of nalmefene hydrochloride (1.5 ml: 1.5 mg) intramuscularly respectively, and 2 mL of blood was collected from the forelimb vein before administration and at 2 min, 5 min, 10 min, 15 min, 30 min, 45 min, 1 h, 2 h, 4 h and 6 h after administration. […] The content of nalmefene in the plasma was detected by LC-MS/MS.

[2] = Experimental Example 4: pharmacokinetic experiment, nalmefene in plasma by LC-MS/MS
Source text: Beagle dogs (body weight of 8 kg-10 kg, supplier: Suzhou Xishan Zhongke Experimental Animal Co., Ltd. and Chengdu Dossy Experimental Animal Co., Ltd., license numbers: SCXK(Su)2018-0001 and SCXK(1)2019-031)
(§2) • EDTA-K2 anticoagulant tube: brand Kangweishi (KWS) • Liquid chromatograph (Shimadzu, LC-30AD), mass spectrometer (SCIEX Triple Quad 4500) • LC-MS/MS detection conditions: • Instrument: UPLC-MS/MS (AB API 4500) • MS conditions: Electrospray ionization (ESI) source, positive ion detection
(§3) HPLC conditions: mobile phase A: 90% water+10% acetonitrile+0.1% formic acid+2 mM ammonium acetate; mobile phase B: 90% acetonitrile+10% water+0.1% formic acid+2 mM ammonium acetate; chromatographic column: Waters ACQUITY UPLC BEH C18 (2.1×50 mm, 1.7 μm); flow rate: 0.50 mL/min; chromatographic column temperature: 40° C.
as §1, with “9:” for “1:”

[3] = Experimental Example 3: pharmacokinetic experiment, nalmefene in plasma by LC-MS/MS
Procedure: Beagle dogs (body weight of 8 kg-10 kg, supplier: Chengdu Dossy Experimental Animal Co., Ltd., license number: SCXK(1)2019-031)
as §2, §3
as §1, with “3:” for “1:”, “administration. The blood sample was placed in an EDTA-K2 anticoagulant tube, centrifuged at 4500 r/min for 10 min, and 50 μL of plasma was separated into a centrifuge tube.” for “administration.”

CCCCCCCCCCCCOP(=O)([O-])OCC[N+](C)(C)C [dodecylphosphocholine, Dodecylphosphocholine]
absorption of nalmefene hydrochloride in the nasal cavity, compared with not using dodecylphosphocholine [1]: significantly accelerate | effect to accelerate the absorption of nalmefene hydrochloride in the nasal cavity compared with n-dodecyl-β-D-maltoside [2]: superior | effect to accelerate the absorption of nalmefene hydrochloride in the nasal cavity compared with n-dodecyl-β-D-maltoside [3]: superior

From US20260048072A1, “PHARMACEUTICAL PREPARATION FOR INTRANASAL ADMINISTRATION AND PREPARATION METHOD THEREFOR” (CHENGDU EASTON BIOPHARMACEUTICALS CO., LTD., priority 2023, published 2026)
